Measurements reported in patent US20110263454A1, “Methods of Identifying Functional Characteristics of Promoters, Transcription Modifying Proteins and Transcription Modulating Agents” (Salk Institute for Biological Studies, priority 2008, published 2011).

How the values were obtained:
mUCP1 promoter = test: NHR-promoter luciferase screen, mUCP1 promoter; format: cell-based, mouse; details: for Luc. act., normalized to lacZ / Normalized Luc. act., normalized to control: mUCP1 promoter reporter, co-transfected HR, with or without its ligand; for Normalized Luc. act., normalized to control: relative to control; for luciferase activity normalized to lacZ activity and to a control, mUCP!: mUCP! promoter-luciferase, CV-1 cells, NHR +/- ligand, control = 1.00
Description: (§1) The use, feasibility, and reproducibility of the functional NHR-promoter screen in a 48-well format have been tested validated. Briefly, there were co-expressed 50 ng of each NHR/NHR homodimer or NHR/RXR heterodimer with 100 ng promoter/luciferase construct and 50 ng of LacZ (as a control for transfection efficiency) in CV-1 cells using Fugene HD (Roche) as a transfection reagent (alternatively or additionally, a CMV-YFP construct can be used as a transfection control). Each of the nuclear hormone receptors that were used in these experiments was cloned into a pcDNA3.1 vector and comprised a C-terminally linked V5H6 tag. Twenty-four hours after transfection, appropriate ligands were added, where applicable, (see Table 5 for various ligands and concentrations and after 48 hrs, samples were assayed for luciferase and LacZ activity. To measure for luciferase activity 15 ul of sample was added to 30 ul of luciferase buffer (20 mM tricine, 1.07 mM MgCarbonate, 2.67 mM MgSulfate, 0.1 mM Naz-EDTA, 5 mM DTT, 5 mM ATP, 0.15 mg/ml CoA, 0.5 mM Luciferin), mixed briefly, and run in a Perkin Elmer Victor 5 luminometer. Thus, the functional NHR-promoter screen was used to observe the transcriptional activity of 29 promoters from various physiological pathways including inflammation, lipid and sugar metabolism, cholesterol transport, xenobiotic metabolism, and circadian rhythm.
(§2) The promoters that facilitate transcription of the indicated gene products that were tested using the protocols described herein are listed in the first row of the table. The nuclear hormone receptors and, where applicable, ligands that were assayed for their transcriptional effects on the promoters are listed in the first column of the table. The data represent the luciferase activity of each sample normalized to both the lacZ activity of that sample and to a control, e.g., no NHR or ligand, as customary in the art. As described previously, these normalizations allow the transcriptional activity of each reporter cell to be compared to other samples.
(§3) Tables 7-40 show the transcriptional effects of the hormone receptors, and, where applicable, ligands (orphan receptors are screened without ligand), on each individual promoter. […] The control data of each table are shown in their last rows.

hPOMC promoter = test: NHR-promoter luciferase screen, hPOMC promoter; format: cell-based, human; details: for Luc. act., normalized to lacZ / Normalized Luc. act., normalized to control: hPOMC promoter, HR/ligand component; for hPOMC promoter reporter activity: transcription factor +/- ligand, control = 1.00; for luciferase/LacZ, hPOMC (selected results): hPOMC promoter-luciferase, NHR +/- ligand, control = 1.0
Description: as §1, §2, §3

mUCP2 promoter = test: NHR-promoter luciferase screen, mUCP2 promoter; format: cell-based, mouse; details: for Luc. act., normalized to lacZ / Normalized Luc. act., normalized to control: mUCP2 promoter reporter, co-transfected HR, with or without its ligand; for Normalized Luc. act., normalized to control: relative to control; for luciferase activity normalized to lacZ activity and to a control, mUCP2: mUCP2 promoter-luciferase, CV-1 cells, NHR +/- ligand, control = 1.00
Description: as §1, §2, §3

hIFNg promoter = test: NHR-promoter luciferase screen, hIFNg promoter; format: cell-based, human; details: for Luc. act., normalized to lacZ / Normalized Luc. act., normalized to control: IFNg promoter, HR component without or with ligand; for hIFNg promoter reporter activity: transcription factor +/- ligand, control = 1.00
Description: as §1, §2, §3

hIRF7 promoter = test: NHR-promoter luciferase screen, hIRF7 promoter; format: cell-based, human; details: for Normalized Luc. act., normalized to control / Luc. act., normalized to lacZ: IRF7 promoter reporter; for Normalized Luc. act., normalized to control: HR without or with its ligand, relative to control; for Luc. act., normalized to lacZ: hormone receptor (HR) without or with its ligand; for hIRF7 promoter reporter activity: transcription factor +/- ligand, control = 1.00
Description: as §1, §2, §3

SREBP1c promoter = test: NHR-promoter luciferase screen, SREBP1c promoter; format: cell-based, mouse; details: for Luc. act., normalized to lacZ / Normalized Luc. act., normalized to control: SREBP1c promoter, HR component without or with ligand; for mSREBP1-c promoter reporter activity: transcription factor +/- ligand, control = 1.00
Description: as §1, §2, §3

| Substance | Luc. act., normalized to lacZ (mUCP1 promoter) | Normalized Luc. act., normalized to control (mUCP1 promoter) | luciferase activity normalized to lacZ activity and to a control, mUCP! (mUCP1 promoter) | Luc. act., normalized to lacZ (hPOMC promoter) | Normalized Luc. act., normalized to control (hPOMC promoter) | hPOMC promoter reporter activity (hPOMC promoter) | Luc. act., normalized to lacZ (mUCP2 promoter) | Normalized Luc. act., normalized to control (mUCP2 promoter) | luciferase activity normalized to lacZ activity and to a control, mUCP2 (mUCP2 promoter) | Luc. act., normalized to lacZ (hIFNg promoter) | Normalized Luc. act., normalized to control (hIFNg promoter) | hIFNg promoter reporter activity (hIFNg promoter) | Normalized Luc. act., normalized to control (hIRF7 promoter) | Luc. act., normalized to lacZ (hIRF7 promoter) | hIRF7 promoter reporter activity (hIRF7 promoter) | Luc. act., normalized to lacZ (SREBP1c promoter) | Normalized Luc. act., normalized to control (SREBP1c promoter) | mSREBP1-c promoter reporter activity (SREBP1c promoter) | luciferase/LacZ, hPOMC (selected results) (hPOMC promoter) | regulation of the SREBP1c promoter (SREBP1c promoter; FIG. 2b, in words) |
| --- | --- | --- | --- | --- | --- | --- | --- | --- | --- | --- | --- | --- | --- | --- | --- | --- | --- | --- | --- | --- |
| AR: Androsterone Receptor (NR3C4), cDNA driver | 3.3 | 0.7 | 0.74 | 1.8 | 0.4 | 0.42 | 196.6 | 1.8 | 1.79 | 31.4 | 2.0 | 1.97 | 1.1 | 29.9 | 1.14 | 418.4 | 1.3 | 1.30 |  |  |
| ERR1: Estrogen Related Receptor α (NR3B1, ERRa), cDNA driver | 3.9 | 0.9 | 0.88 | 2.7 | 0.6 | 0.63 | 121.6 | 1.1 | 1.11 | 18.5 | 1.2 | 1.17 | 1.2 | 31.3 | 1.19 | 316.8 | 1.0 | 0.98 |  |  |
| GR: Glucocorticoid Receptor (NR3C1), cDNA driver | 1.9 | 0.4 | 0.42 | 0.7 | 0.2 | 0.16 | 59.4 | 0.5 | 0.54 | 8.9 | 0.6 | 0.56 | 0.7 | 18.9 | 0.72 | 150.3 | 0.5 | 0.47 | 0.2 |  |
| LXRa: Liver X Receptor α (NR1H3), cDNA driver | 3.1 | 0.7 | 0.69 | 6.8 | 1.6 | 1.58 | 262.7 | 2.4 | 2.39 | 24.59 | 1.5 | 1.55 | 1.3 | 33.2 | 1.26 | 5951.9 | 18.5 | 18.48 |  | specific and strong activation |
| NR4a1: NR4a1 (NR4A1; NUR77), nuclear hormone receptor cDNA driver | 7.6 | 1.7 | 1.70 | 15.3 | 3.6 | 3.57 | 265.6 | 2.4 | 2.42 | 35.6 | 2.2 | 2.24 | 2.3 | 61.0 | 2.31 | 408.2 | 1.3 | 1.27 | 3.6 |  |
| PNR: Photoreceptor-specific Nuclear Receptor (NR2E3), cDNA driver | 1.7 | 0.4 | 0.37 | 1.5 | 0.3 | 0.34 | 104.4 | 1.0 | 0.95 | 11.3 | 0.7 | 0.71 | 1.0 | 27.5 | 1.04 | 265.7 | 0.8 | 0.82 |  |  |
| PPARa: Peroxisome proliferator activated receptor α (NR1C1), cDNA driver | 2.6 | 0.6 | 0.59 | 2.4 | 0.6 | 0.57 | 167.3 | 1.5 | 1.52 | 11.3 | 0.7 | 0.71 | 1.4 | 36.6 | 1.39 | 935.6 | 2.9 | 2.90 |  |  |
| PPARg: Peroxisome proliferator activated receptor γ (NR1C3), cDNA driver | 2.9 | 0.7 | 0.66 | 2.8 | 0.6 | 0.65 | 171.6 | 1.6 | 1.56 | 24.04 | 1.5 | 1.51 | 1.7 | 44.8 | 1.70 | 795.8 | 2.5 | 2.47 | 0.6 |  |
| RXRa: Retinoic X Receptor α (NR2B1), cDNA driver | 2.9 | 0.7 | 0.66 | 2.6 | 0.6 | 0.61 | 137.8 | 1.3 | 1.25 | 13.1 | 0.8 | 0.82 | 1.0 | 27.5 | 1.04 | 521.9 | 1.6 | 1.62 |  |  |
| SF-1: Steroidogenic Factor 1 (NR5A1, SF1), cDNA driver | 11.3 | 2.5 | 2.54 | 13.1 | 3.1 | 3.06 | 449.3 | 4.1 | 4.09 | 46.3 | 2.9 | 2.91 | 2.5 | 65.5 | 2.49 | 916.0 | 2.8 | 2.84 |  |  |
| TLX: Tailless (homolog of drosophila) (NR2E1), cDNA driver | 2.8 | 0.6 | 0.63 | 2.6 | 0.6 | 0.60 | 111.9 | 1.0 | 1.02 | 28.0 | 1.8 | 1.76 | 2.1 | 55.0 | 2.09 | 352.4 | 1.1 | 1.09 |  |  |
